Bridge positions count the residues as written; N and C are the ends. Ends that are not written are not given here.
How the values were obtained:
rScl1.3FL [1] = assay: Surface plasmon resonance binding of C-C′ cyclic peptide to immobilized rScl1.3FL; design: species or system Streptococcus pyogenes (M3-type GAS, MGAS315); settings: Biacore 3000, 25°C; rScl1.3FL immobilized on streptavidin chip (~100 RU); peptide 10-500 μM; HBS buffer pH 7.4; 1:1 Langmuir model; duplicates; read-out: dissociation constant KD (SPR)
Procedure: Real time binding assays were performed at 25°C on a Biacore 3000 Surface Plasmon Resonance (SPR) instrument (GE Healthcare). For immobilization, rScl1.3FL protein containing the C-terminal Strep-tag II was injected at a concentration of 40 μM on streptavidin-coated sensor chip, SA Biacore, until the desired level of immobilization was achieved (averaged value of 100 RU). Binding assays were carried out by injecting the C-C′ cyclic peptide at concentrations ranging between 10 and 500 μM. Experiments were carried out in HBS buffer (10 mM HEPES, 150 mM NaCl, 3 mM EDTA, pH 7.4). The association phase (kon) was followed for 270 s, whereas the dissociation phase (koff) was followed for 300 s. The reference chip sensorgrams were subtracted from sample sensorgrams. Experiments were carried out in duplicates. Kinetic parameters were estimated assuming a 1:1 Langmuir binding model and using version 4.1 Evaluation Software (GE Healthcare).

rScl1.3FL [2] = assay: Tryptophan fluorescence quenching binding assay in solution; design: species or system Streptococcus pyogenes (M3-type GAS, MGAS315); settings: rScl1.3FL 30 μM, peptide 0-300 μM, 25.0°C, excitation 298 nm, emission 333 nm; 1:1 model; duplicates
Procedure: rScl1.3FL protein, at a concentration of 30 μM, was incubated with increasing concentrations of C-C′ cyclic peptide (0–300 μM) at 25.0°C, using an excitation wavelength of 298.0 nm and a fluorescence emission wavelength ranging from 300 to 400 nm. The acquisition parameters were set as follows: excitation and emission slits at 5 nm; 120 nm/min scan rate; 1.00 nm data interval averaging time at 0.500 s, PMT voltage at “high.” Fluorescence values were recorded at 333 nm, and subtracted from the fluorescence intensity of the ligand-free protein, generating −Δfluorescence. The −Δfluorescence values were plotted against the peptide concentration (Williamson, [2013]). Experiments were carried out in duplicates. A control assay was carried out employing the buffer as titrant to assess that the dilution effect was under 3%, not affecting the results.

[3] = target: recombinant full-length Scl1.3FL protein (streptococcal collagen-like protein 1, M3-type, repaired allele) (Streptococcus pyogenes (group A Streptococcus), M3-type strain MGAS315); assay: other fluorescence titration; tryptophan fluorescence quenching in solution; rScl1.3FL at 30 μM with 0-300 μM C-C′ cyclic peptide, 25.0°C, excitation 298 nm, read at 333 nm; 1:1 model
[4] = target: recombinant full-length Scl1.3FL protein (streptococcal collagen-like protein 1, M3-type, repaired allele) (Streptococcus pyogenes (group A Streptococcus), M3-type strain MGAS315); assay: SPR; Biacore 3000, 25°C; rScl1.3FL with C-terminal Strep-tag II immobilised on a streptavidin-coated SA chip (about 100 RU); C-C′ cyclic peptide injected at 10-500 μM; HBS buffer (10 mM HEPES, 150 mM NaCl, 3 mM EDTA, pH 7.4); 1:1 Langmuir model

Molecule | Kd (rScl1.3FL [1]) [µM] | Kd (rScl1.3FL [2]) [µM] | Kd [3] [µM] | Kd [4] [µM]
CRVTYSSPEDGIHELFC (disulfide 1-17 (inferred)) [C-C′ cyclic peptide, Disulfide-cyclised, acetylated and amidated peptide mimicking the C-C′ β-hairpin of the EDA domain of cellular fibronectin] | 63.3 | 44.5 ± 9 |  | 
Ac-CRVTYSSPEDGIHELFC-NH2 (disulfide 1-17; SMILES CC[C@H](C)[C@@H]1NC(=O)CNC(=O)[C@H](CC(=O)O)NC(=O)[C@H](CCC(=O)O)NC(=O)[C@@H]2CCCN2C(=O)[C@H](CO)NC(=O)[C@H](CO)NC(=O)[C@H](Cc2ccc(O)cc2)NC(=O)[C@H]([C@@H](C)O)NC(=O)[C@H](C(C)C)NC(=O)[C@H](CCCNC(=N)N)NC(=O)[C@@H](NC(C)=O)CSSC[C@@H](C(N)=O)NC(=O)[C@H](Cc2ccccc2)NC(=O)[C@H](CC(C)C)NC(=O)[C@H](CCC(=O)O)NC(=O)[C@H](Cc2c[nH]cn2)NC1=O) |  |  | 44.5 | 63.3
